According to patent US20130072714A1, “BIOBASED COMPOSITIONS OF DIAMMONIUM SUCCINATE, MONOAMMONIUM SUCCINATE AND/OR SUCCINIC ACID AND DERIVATIVES THEREOF” (BioAmber International S.à.r.l., priority 2011, published 2013):
“Also recorded” adds a separate entry of the source.

Experiment: Heated color test: SA plus 1,4-butanediol with trace glucose and/or alanine, 180° C., visual inspection
Type: physicochemical
Conditions: 1.0 gram 1,4-butanediol plus 0.5 gram SA, 2 hours
Protocol: Glass vials were charged with 1,4-butanediol, pure SA, and trace levels of either glucose, alanine, or both. The vials were heated at 180° C. for 2 hours and any color changes observed by visual inspection. [table]

color change on heating, two impurities (glucose 5 ppm, alanine 5 ppm) | color change on heating, two impurities (glucose 5 ppm, alanine 50 ppm) | color change on heating, two impurities (glucose 5 ppm, alanine 500 ppm) | color change on heating, two impurities (glucose 50 ppm, alanine 5 ppm) | color change on heating, two impurities (glucose 50 ppm, alanine 50 ppm) | color change on heating, two impurities (glucose 50 ppm, alanine 500 ppm) | color change on heating, two impurities (glucose 500 ppm, alanine 5 ppm) | color change on heating, two impurities (glucose 500 ppm, alanine 50 ppm) | color change on heating, two impurities (glucose 500 ppm, alanine 500 ppm) | color change on heating, single impurity (impurity 10 ppm) | color change on heating, single impurity (impurity 100 ppm) | color change on heating, single impurity (impurity 1000 ppm) | Compound
No color | yellow color; also recorded: Slight | Slight | No color | Slight | Light | No color | Slight | Light | – | – | – | O=C(O)CCC(=O)O [SA, succinic acid]
– | – | – | – | – | – | – | – | – | No color | No color | Slight yellow | C[C@H](N)C(=O)O [Alanine, alanine]
